The results in this text go back to PMC6862080, “Blood Compatibility—An Important but Often Forgotten Aspect of the Characterization of Antimicrobial Peptides for Clinical Application” (International Journal of Molecular Sciences, 2019).

Peptide text beside a SMILES is read from it. * marks the point of attachment. Decanoyl = CCCCCCCCCC(=O)*; Octanoyl = CCCCCCCC(=O)*

The subject of one data set is S. aureus (ATCC 12600). The data set can be described thus: microbe, parasite or virus in culture. It counts as cell-based. Conditions: ATCC 12600, pH 7.4.
Data set [1] relates to erythrocyte membranes. Put plainly: Hemolysis in RBC suspended in PBS (Kahn method). It counts as cell-based, human. The conditions noted are these: pH 7.4. The procedure: (§1) Hemolysis was tested with fresh citrate anticoagulated blood from healthy volunteers as well as with blood cells which were suspended in phosphate buffered saline (10 mM pH 7.4). Afterwards, 100 μL AMP solution was added to 500 μL blood to finally achieve AMP concentrations of 8, 32, and 128 μg/mL. As the negative and positive control, 100 μL PBS buffer and 100 μL 12% Triton-X buffer was added to 500 μL blood, respectively. After incubation on an orbital shaker for 60 min at 37 °C, the cells were removed by centrifugation and 100 μL of the supernatant were transferred to a 96 well microplate for hemolysis measurement. The hemolysis was calculated from the extinction at the wavelengths 562, 578, and 598 nm with a Synergy 2 microplate reader (BioTek, Winooski, VT, USA) according to the method published by Kahn.

Data set [2] concerns erythrocyte membranes. The data set can be described thus: Hemolysis in whole blood (Kahn method). It counts as cell-based, human. As to the method: as §1
In a further data set the test system is E. coli (ATCC 11303). The data set can be described thus: microbe, parasite or virus in culture. It counts as cell-based. Conditions: ATCC 11303, pH 7.4.

Consider `CCCCCCCC(=O)N[C@@H](Cc1ccccc1)C(=O)N[C@@H](Cc1c[nH]c2ccccc12)C(=O)N[C@@H](CCCNC(=N)N)C(=O)N[C@@H](CCCNC(=N)N)C(=O)N[C@@H](Cc1ccccc1)C(=O)N[C@@H](Cc1c[nH]c2ccccc12)C(=O)N[C@@H](CCCNC(=N)N)C(=O)N[C@@H](CCCNC(=N)N)C(N)=O` [LF11-227-C8] (Octanoyl-FWRRFWRR-NH2), for which, in the data set on S. aureus (ATCC 12600), the “Minimal Inhibitory Concentration, S. aureus, PBS” value is more than 128 µg/mL. Besides, in the data set on erythrocyte membranes [1], the “Free Hemoglobin, RBC in PBS, 8 μg/mL” value is on record as 13.0 ± 0.7 mg/dL and the “Free Hemoglobin, RBC in PBS, 32 μg/mL” value turned out to be 15.9 ± 2.6 mg/dL. For the same molecule, in the data set with erythrocyte membranes [2], the “Free Hemoglobin, BLOOD, 8 μg/mL” value is given as 3.6 ± 2.8 mg/dL; the “Free Hemoglobin, BLOOD, 32 μg/mL” value stood at 10.5 ± 13.5 mg/dL; the “Free Hemoglobin, BLOOD, 128 μg/mL” value was 2.3 ± 3.7 mg/dL. Also, the “Minimal Inhibitory Concentration, E. coli, PBS” value in the data set on E. coli (ATCC 11303) is more than 128 µg/mL.
In the case of `CCCCCCCCCC(=O)N[C@@H](Cc1ccccc1)C(=O)N[C@@H](Cc1c[nH]c2ccccc12)C(=O)N[C@@H](CCCNC(=N)N)C(=O)N[C@@H](CCCNC(=N)N)C(=O)N[C@@H](Cc1ccccc1)C(=O)N[C@@H](Cc1c[nH]c2ccccc12)C(=O)N[C@@H](CCCNC(=N)N)C(=O)N[C@@H](CCCNC(=N)N)C(N)=O` [LF11-227-C10] (Decanoyl-FWRRFWRR-NH2), the “Minimal Inhibitory Concentration, S. aureus, PBS” value in the data set on S. aureus (ATCC 12600) was more than 128 µg/mL. Moreover, in the data set with erythrocyte membranes [1], the “Free Hemoglobin, RBC in PBS, 8 μg/mL” value worked out at 18.0 ± 6.7 mg/dL and the “Free Hemoglobin, RBC in PBS, 32 μg/mL” value is given as 45.1 ± 20.5 mg/dL. Besides, in the data set with erythrocyte membranes [2], the “Free Hemoglobin, BLOOD, 8 μg/mL” value is recorded as 2.3 ± 0.6 mg/dL; the “Free Hemoglobin, BLOOD, 32 μg/mL” value amounted to 4.2 ± 1.4 mg/dL; the “Free Hemoglobin, BLOOD, 128 μg/mL” value is 2.7 ± 4.2 mg/dL. Besides, in the data set on E. coli (ATCC 11303), the “Minimal Inhibitory Concentration, E. coli, PBS” value was more than 128 µg/mL.
On to `CCCCCCCCCC(=O)N1CCC[C@H]1C(=O)N[C@@H](Cc1ccccc1)C(=O)N[C@@H](Cc1c[nH]c2ccccc12)C(=O)N[C@@H](CCCNC(=N)N)C(=O)N[C@H](C(=O)N[C@@H](CCCNC(=N)N)C(=O)N[C@H](C(=O)N[C@@H](CCCNC(=N)N)C(=O)N[C@@H](CCCNC(=N)N)C(N)=O)[C@@H](C)CC)[C@@H](C)CC` [LF11-322-C10] (Decanoyl-PFWRIRIRR-NH2), for which the “Minimal Inhibitory Concentration, S. aureus, PBS” value in the data set with S. aureus (ATCC 12600) was determined as 8 µg/mL. In the data set with erythrocyte membranes [1], the “Free Hemoglobin, RBC in PBS, 8 μg/mL” value was found to be 16.6 ± 2.4 mg/dL and the “Free Hemoglobin, RBC in PBS, 32 μg/mL” value was found to be 48.5 ± 5.5 mg/dL. For the same molecule, in the data set on erythrocyte membranes [2], the “Free Hemoglobin, BLOOD, 8 μg/mL” value is reported as 2.5 ± 2.0 mg/dL; the “Free Hemoglobin, BLOOD, 32 μg/mL” value is 6.0 ± 4.6 mg/dL; the “Free Hemoglobin, BLOOD, 128 μg/mL” value is listed as 3.0 ± 4.5 mg/dL. Also, in the data set on E. coli (ATCC 11303), the “Minimal Inhibitory Concentration, E. coli, PBS” value worked out at 8 µg/mL.
In the case of H-FWRRFWRR-NH2 [LF11-227-NH2], in the data set on S. aureus (ATCC 12600), the “Minimal Inhibitory Concentration, S. aureus, PBS” value came to 8 µg/mL. In the data set with erythrocyte membranes [1], the “Free Hemoglobin, RBC in PBS, 8 μg/mL” value was 10.0 ± 2.2 mg/dL and the “Free Hemoglobin, RBC in PBS, 32 μg/mL” value is 14.6 ± 3.2 mg/dL. In addition, in the data set with erythrocyte membranes [2], the “Free Hemoglobin, BLOOD, 8 μg/mL” value was determined as 2.4 ± 3.1 mg/dL; the “Free Hemoglobin, BLOOD, 32 μg/mL” value is given as 9.5 ± 12.3 mg/dL; the “Free Hemoglobin, BLOOD, 128 μg/mL” value is 2.5 ± 3.8 mg/dL. Further, the “Minimal Inhibitory Concentration, E. coli, PBS” value with E. coli (ATCC 11303) came to 8 µg/mL.
